Data published in patent US10350224B2, “Stabilized modified release vitamin D formulation and method of administering same” (OPKO IRELAND GLOBAL HOLDINGS, LTD., priority 2013, dated 2019).
Like-named read-outs stand apart in the source and are kept apart here.

Key:
[1] = Study B: single-dose pharmacokinetics of 25-hydroxyvitamin D3 in healthy subjects; format: in vivo; conditions: human, serum, iv, 448 ug, single i.v. dose 448 μg in ethanol solution
[2] = test system: serum total 1,25-dihydroxyvitamin D; experiment: Study A: serum total 1,25-dihydroxyvitamin D after single dose; format: in vivo, human; conditions: single i.v. dose 448 μg, by 6 hours post-dose
[3] = test system: serum iPTH; experiment: Study A: serum iPTH after single dose; format: in vivo, human; conditions: single i.v. dose 448 μg, first 96 hours
[4] = Study A: single-dose pharmacokinetics of serum 25-hydroxyvitamin D3 in subjects with stage 3 or 4 CKD; format: in vivo, human; conditions: for Tmax / Cmax / AUC(0-t) / AUC(0-inf) / half-life: human, serum, iv, 448 ug
[5] = baseline-adjusted 25-hydroxyvitamin D3, 448 μg iv single dose
[6] = observed 25-hydroxyvitamin D3, 448 μg iv single dose

Cmax [1]: 153 ng/mL | CL mean (SD) [4, 5]: 0.036 (0.014) L/ng * h | CL median [4, 5]: 0.037 L/ng/h | F mean [4, 5]: 1.000 (NA) | Vd mean (SD) [4, 5]: 32.94 (11.00) L/ng | Vd median [4, 5]: 29.70 L/ng | λ2 mean (SD) [4, 5]: 0.0011 (0.0005) h^−1 | λ2 median [4, 5]: 0.0010 h⁻¹ | Tmax ([4]; Study A, single i.v. dose 448 μg in ethanol solution, read-out: Tmax): 30 min | Cmax ([4]; approximate mean Cmax of 25-hydroxyvitamin D3, Study A, single i.v. dose 448 μg in ethanol solution): ~134 ng/mL | AUC(0-t) ([4]; baseline-adjusted 25-hydroxyvitamin D3, 448 μg iv single dose, read-out: AUC0-42 days mean): 19600 ng·h/mL | AUC(0-t) ([4]; baseline-adjusted 25-hydroxyvitamin D3, 448 μg iv single dose, read-out: AUC0-42 days median): 18800 ng·h/mL | AUC(0-inf) ([4]; baseline-adjusted 25-hydroxyvitamin D3, 448 μg iv single dose, read-out: AUC0-inf mean): 34500 ng·h/mL | AUC(0-inf) ([4]; baseline-adjusted 25-hydroxyvitamin D3, 448 μg iv single dose, read-out: AUC0-inf median): 27000 ng·h/mL | AUC(0-t) ([4]; baseline-adjusted 25-hydroxyvitamin D3, 448 μg iv single dose, read-out: AUC0-last mean): 19600 ng·h/mL | AUC(0-t) ([4]; baseline-adjusted 25-hydroxyvitamin D3, 448 μg iv single dose, read-out: AUC0-last median): 18800 ng·h/mL | Cmax ([4]; baseline-adjusted 25-hydroxyvitamin D3, 448 μg iv single dose, read-out: Cmax mean (SD)): 110 ng/mL | Cmax ([4]; baseline-adjusted 25-hydroxyvitamin D3, 448 μg iv single dose, read-out: Cmax median): 111 ng/mL | half-life ([4]; baseline-adjusted 25-hydroxyvitamin D3, 448 μg iv single dose, read-out: t1/2 mean (SD) (converted)): 31.1 days | half-life ([4]; baseline-adjusted 25-hydroxyvitamin D3, 448 μg iv single dose, read-out: t1/2 median (converted)): 27.6 days | Tmax ([4]; baseline-adjusted 25-hydroxyvitamin D3, 448 μg iv single dose, read-out: tmax mean (SD)): 29.4 min | Tmax ([4]; baseline-adjusted 25-hydroxyvitamin D3, 448 μg iv single dose, read-out: tmax median): 15 min | AUC(0-t) ([4]; observed 25-hydroxyvitamin D3, 448 μg iv single dose, read-out: AUC0-42 days mean): 43500 ng·h/mL | AUC(0-t) ([4]; observed 25-hydroxyvitamin D3, 448 μg iv single dose, read-out: AUC0-42 days median): 47100 ng·h/mL | AUC(0-inf) ([4]; observed 25-hydroxyvitamin D3, 448 μg iv single dose, read-out: AUC0-inf mean): 138000 ng·h/mL | AUC(0-inf) ([4]; observed 25-hydroxyvitamin D3, 448 μg iv single dose, read-out: AUC0-inf median): 124000 ng·h/mL | AUC(0-t) ([4]; observed 25-hydroxyvitamin D3, 448 μg iv single dose, read-out: AUC0-last mean): 43500 ng·h/mL | AUC(0-t) ([4]; observed 25-hydroxyvitamin D3, 448 μg iv single dose, read-out: AUC0-last median): 47100 ng·h/mL | Cmax ([4]; observed 25-hydroxyvitamin D3, 448 μg iv single dose, read-out: Cmax mean (SD)): 134 ng/mL | Cmax ([4]; observed 25-hydroxyvitamin D3, 448 μg iv single dose, read-out: Cmax median): 134 ng/mL | half-life ([4]; observed 25-hydroxyvitamin D3, 448 μg iv single dose, read-out: t1/2 mean (SD) (converted)): 74 days | half-life ([4]; observed 25-hydroxyvitamin D3, 448 μg iv single dose, read-out: t1/2 median (converted)): 70.6 days | Tmax ([4]; observed 25-hydroxyvitamin D3, 448 μg iv single dose, read-out: tmax mean (SD)): 29.4 min | Tmax ([4]; observed 25-hydroxyvitamin D3, 448 μg iv single dose, read-out: tmax median): 15 min | CL mean (SD) [4, 6]: 0.0095 (0.0065) L/ng * h | CL median [4, 6]: 0.0081 L/ng/h | F mean [4, 6]: 1.000 (NA) | Vd mean (SD) [4, 6]: 20.35 (7.42) L/ng | Vd median [4, 6]: 19.550 L/ng | λ2 mean (SD) [4, 6]: 0.0005 (0.0002) h^−1 | λ2 median [4, 6]: 0.0004 h⁻¹
SMILES: C=C1CC[C@H](O)C/C1=C/C=C1\CCC[C@]2(C)[C@@H]([C@H](C)CCCC(C)(C)O)CC[C@@H]12 [25-hydroxyvitamin D3]
increase of mean serum total 1,25-dihydroxyvitamin D from pre-treatment baseline [2]: approximately 13 pg/mL | change in serum iPTH [3]: no meaningful change
